{"source": "paper PMC2665923", "about": "(Journal of medicinal chemistry, 2009)", "key": {"[1]": {"test_system": "pancreatic cancer cells (MiaPaCa-2, BXPC3, HupT3)", "test": "Pancreatic cancer cell proliferation", "type": "cell-based", "settings": "for antiproliferative activity in pancreatic cancer cells: MiaPaCa-2, BXPC3, HupT3"}, "[2]": {"test_system": "pancreatic cancer cells (MiaPaCa-2, BXPC3, HupT3)", "settings": "BXPC3, HupT3 and MiaPaCa-2; shown earlier; cited from earlier work"}, "[3]": {"test": "Storage stability at rt", "type": "physicochemical", "settings": "few weeks at rt"}, "[4]": {"test_system": "NFκB-mediated expression of XIAP", "test": "Western immunoblot of XIAP expression", "type": "cell-based", "settings": "BXPC3; 5 and 26 at 5 μM; 27 up to 20 μM"}, "[5]": {"test_system": "GSK-3β activity (phosphorylation of glycogen synthase)", "test": "Western immunoblot of glycogen synthase phosphorylation in cells", "type": "cell-based", "settings": "BXPC3, 5 and 26 at 5 μM, 6-36 h, 27 at 5, 10, 20 μM"}, "[6]": {"test_system": "BXPC3 and HupT3 pancreatic cancer cells", "test": "Apoptosis by Hoechst staining", "type": "cell-based", "settings": "5 (5 μM), 26 (5 μM), 27 (20 μM), 36 h"}}, "note": "“Also recorded” adds a separate entry of the source."}
{"molecule": "Cn1cc(C2=C(c3coc4ccc(F)cc34)C(=O)NC2=O)c2cc(I)ccc21", "note": "[Compound 22, 3-(5-Fluoro-benzofuran-3-yl)-4-(5-iodo-1-methyl-1H-indol-3-yl)-pyrrole-2,5-dione]", "values": [{"measurement": "antiproliferative activity in pancreatic cancer cells", "setting": "[1]", "value": "little or no inhibitory activity"}]}
{"molecule": "Cn1cc(C2=C(c3ccc(Cl)cc3Cl)C(=O)NC2=O)c2ccccc21", "note": "[Compound 78]", "values": [{"measurement": "pancreatic cancer cell proliferation", "setting": "[2]", "value": "significant decrease"}]}
{"molecule": "Cn1cc(C2=C(c3coc4ccccc34)C(=O)NC2=O)c2cc(I)ccc21", "note": "[Compound 21, 3-Benzofuran-3-yl-4-(5-iodo-1-methyl-1H-indol-3-yl)-pyrrole-2,5-dione]", "values": [{"measurement": "antiproliferative activity in pancreatic cancer cells", "setting": "[1]", "value": "little or no inhibitory activity"}]}
{"molecule": "Cn1cc(C2=C(c3coc4cc(O)ccc34)C(=O)NC2=O)c2cc(F)ccc21", "note": "[Compound 4, 3-(5-Fluoro-1-methyl-1H-indol-3-yl)-4-(6-hydroxy-benzofuran-3-yl)-pyrrole-2,5-dione]", "values": [{"measurement": "stability on storage", "setting": "[3]", "value": "Partially degradated after few weeks at rt"}]}
{"molecule": "COc1cccc2c(C3=C(c4cn(C)c5cc(Cl)c(F)cc45)C(=O)NC3=O)coc12", "note": "[Compound 11, 3-(6-Chloro-5-fluoro-1-methyl-1H-indol-3-yl)-4-(7-methoxy-benzofuran-3-yl)-pyrrole-2,5-dione]", "values": [{"measurement": "antiproliferative activity in pancreatic cancer cells", "setting": "[1]", "value": "good antiproliferative activity"}]}
{"molecule": "COc1cccc2c(C3=C(c4cn(C)c5cc(I)c(F)cc45)C(=O)NC3=O)coc12", "note": "[Compound 5, 3-(5-Fluoro-6-iodo-1-methyl-1H-indol-3-yl)-4-(7-methoxy-benzofuran-3-yl)-pyrrole-2,5-dione]", "values": [{"measurement": "NFκB-mediated expression of XIAP", "setting": "[4]", "value": "pronounced decrease"}, {"measurement": "GSK-3β activity in cells (GS phosphorylation)", "setting": "[5]", "value": "effectively inhibited"}, {"measurement": "antiproliferative activity in pancreatic cancer cells", "setting": "[1]", "value": "good antiproliferative activity"}, {"measurement": "concentrations showing significant anticancer activity", "setting": "[1]; pancreatic cancer cells", "value": "1 to 5", "unit": "µM"}, {"measurement": "apoptosis / survival of pancreatic cancer cells", "setting": "[6]", "value": "significant apoptosis"}]}
{"molecule": "Cn1cc(C2=C(c3coc4ccccc34)C(=O)NC2=O)c2cc(Br)ccc21", "note": "[Compound 13]", "values": [{"measurement": "antiproliferative activity in pancreatic cancer cells", "setting": "[1]", "value": "little or no inhibitory activity"}]}
{"molecule": "COCc1cccc2c(C3=C(c4coc5ccccc45)C(=O)NC3=O)cn(C)c12", "note": "[Compound 33, 3-Benzofuran-3-yl-4-(7-methoxymethyl-1-methyl-1H-indol-3-yl)-pyrrole-2,5-dione]", "values": [{"measurement": "antiproliferative activity in pancreatic cancer cells", "setting": "[1]", "value": "little or no inhibitory activity"}]}
{"molecule": "COc1cc2c(C3=C(c4coc5ccccc45)C(=O)NC3=O)cn(C)c2cc1Cl", "note": "[Compound 27, 3-Benzofuran-3-yl-4-(6-chloro-5-methoxy-1-methyl-1H-indol-3-yl)-pyrrole-2,5-dione]", "values": [{"measurement": "NFκB-mediated expression of XIAP", "setting": "[4]", "value": "no such effect"}, {"measurement": "GSK-3β activity in cells (GS phosphorylation)", "setting": "[5]", "value": "did not affect"}, {"measurement": "antiproliferative activity in pancreatic cancer cells", "setting": "[1]", "value": "did not affect; also recorded: little or no inhibitory activity"}, {"measurement": "apoptosis / survival of pancreatic cancer cells", "setting": "[6]", "value": "did not affect"}]}
{"molecule": "COc1cccc2c(C3=C(c4cn(C)c5c(Br)cc(Br)cc45)C(=O)NC3=O)coc12", "note": "[Compound 20, 3-(5,7-Dibromo-1-methyl-1H-indol-3-yl)-4-(7-methoxy-benzofuran-3-yl)-pyrrole-2,5-dione]", "values": [{"measurement": "antiproliferative activity in pancreatic cancer cells", "setting": "[1]", "value": "good antiproliferative activity"}]}
{"molecule": "Cn1cc(C2=C(c3coc4ccccc34)C(=O)NC2=O)c2cc(F)c(Cl)cc21", "note": "[Compound 6, 3-Benzofuran-3-yl-4-(6-chloro-5-fluoro-1-methyl-1H-indol-3-yl)-pyrrole-2,5-dione]", "values": [{"measurement": "antiproliferative activity in pancreatic cancer cells", "setting": "[1]", "value": "good antiproliferative activity"}]}
{"molecule": "COc1ccc(CNC(=O)Nc2ncc([N+](=O)[O-])s2)cc1", "note": "[Compound 77]", "values": [{"measurement": "pancreatic cancer cell proliferation", "setting": "[2]", "value": "significant decrease"}]}
{"molecule": "C#CCOc1ccc2c(C3=C(c4cn(C)c5ccc(Br)cc45)C(=O)NC3=O)coc2c1", "note": "[Compound 16, 3-(5-Bromo-1-methyl-1H-indol-3-yl)-4-(6-prop-2-ynyloxy-benzofuran-3-yl)-pyrrole-2,5-dione]", "values": [{"measurement": "stability on storage", "setting": "[3]", "value": "Partially degradated after few weeks at rt"}]}
{"molecule": "Cn1cc(C2=C(c3coc4ccc(F)cc34)C(=O)NC2=O)c2cc3c(cc21)OCO3", "note": "[Compound 26, 3-(5-Fluoro-benzofuran-3-yl)-4-(5-methyl-5H-[1,3]dioxolo[4,5-f]indol-7-yl)-pyrrole-2,5-dione]", "values": [{"measurement": "NFκB-mediated expression of XIAP", "setting": "[4]", "value": "pronounced decrease"}, {"measurement": "GSK-3β activity in cells (GS phosphorylation)", "setting": "[5]", "value": "effectively inhibited"}, {"measurement": "antiproliferative activity in pancreatic cancer cells", "setting": "[1]", "value": "good antiproliferative activity"}, {"measurement": "apoptosis / survival of pancreatic cancer cells", "setting": "[6]", "value": "significant apoptosis"}]}
{"molecule": "Cn1cc(C2=C(c3coc4ccc(F)cc34)C(=O)NC2=O)c2cc(C#CC3CC3)ccc21", "note": "[Compound 25, 3-(5-Cyclopropylethynyl-1-methyl-1H-indol-3-yl)-4-(5-fluoro-benzofuran-3-yl)-pyrrole-2,5-dione]", "values": [{"measurement": "antiproliferative activity in pancreatic cancer cells", "setting": "[1]", "value": "little or no inhibitory activity"}]}
